Literature values, collected in patent US20160045473A1, “Biological Basis Of Adult Wellness” (priority 2012, published 2016).

Settings: healthy volunteers, at least one study

Which absorption does the source give for `O=C(O)[C@@H]1CCCN1` [proline, L-proline] here?
Its absorption is “well absorbed”.
